# Results as given in patent US20250313575A1, “MACROCYCLES AS LRRK2 INHIBITORS, PHARMACEUTICAL COMPOSITIONS, AND USES THEREOF” (Merck Sharp & Dohme LLC, priority 2022, published 2025).
# Biological target: GST-tagged truncated human mutant G2019S LRRK2 (Homo sapiens (Human), UniProt Q5S007, G2019S)
# Experiment: LRRK2 G2019S Km ATP LanthaScreen assay
# Format: biochemical
# Conditions: G2019S LRRK2, 134 μM ATP (Km ATP), LRRKtide substrate
# Outline: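 TR-FRET assay with GST-tagged truncated human G2019S LRRK2 (1.25 nM), preincubated with compound 15 min, then reacted with fluorescein-LRRKtide and 134 μM ATP (Km) in Tris pH 8.5 buffer, 90 min, ambient temperature. Tb-anti-phospho-LRRKtide detection, 520/495 nm ratio; IC50 by 4-parameter logistic fit, top concentration 9.99 μM in DMSO, 10 points.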
# Sequence of GST-tagged truncated human mutant G2019S LRRK2 (Q5S007 970-2527 G2019S): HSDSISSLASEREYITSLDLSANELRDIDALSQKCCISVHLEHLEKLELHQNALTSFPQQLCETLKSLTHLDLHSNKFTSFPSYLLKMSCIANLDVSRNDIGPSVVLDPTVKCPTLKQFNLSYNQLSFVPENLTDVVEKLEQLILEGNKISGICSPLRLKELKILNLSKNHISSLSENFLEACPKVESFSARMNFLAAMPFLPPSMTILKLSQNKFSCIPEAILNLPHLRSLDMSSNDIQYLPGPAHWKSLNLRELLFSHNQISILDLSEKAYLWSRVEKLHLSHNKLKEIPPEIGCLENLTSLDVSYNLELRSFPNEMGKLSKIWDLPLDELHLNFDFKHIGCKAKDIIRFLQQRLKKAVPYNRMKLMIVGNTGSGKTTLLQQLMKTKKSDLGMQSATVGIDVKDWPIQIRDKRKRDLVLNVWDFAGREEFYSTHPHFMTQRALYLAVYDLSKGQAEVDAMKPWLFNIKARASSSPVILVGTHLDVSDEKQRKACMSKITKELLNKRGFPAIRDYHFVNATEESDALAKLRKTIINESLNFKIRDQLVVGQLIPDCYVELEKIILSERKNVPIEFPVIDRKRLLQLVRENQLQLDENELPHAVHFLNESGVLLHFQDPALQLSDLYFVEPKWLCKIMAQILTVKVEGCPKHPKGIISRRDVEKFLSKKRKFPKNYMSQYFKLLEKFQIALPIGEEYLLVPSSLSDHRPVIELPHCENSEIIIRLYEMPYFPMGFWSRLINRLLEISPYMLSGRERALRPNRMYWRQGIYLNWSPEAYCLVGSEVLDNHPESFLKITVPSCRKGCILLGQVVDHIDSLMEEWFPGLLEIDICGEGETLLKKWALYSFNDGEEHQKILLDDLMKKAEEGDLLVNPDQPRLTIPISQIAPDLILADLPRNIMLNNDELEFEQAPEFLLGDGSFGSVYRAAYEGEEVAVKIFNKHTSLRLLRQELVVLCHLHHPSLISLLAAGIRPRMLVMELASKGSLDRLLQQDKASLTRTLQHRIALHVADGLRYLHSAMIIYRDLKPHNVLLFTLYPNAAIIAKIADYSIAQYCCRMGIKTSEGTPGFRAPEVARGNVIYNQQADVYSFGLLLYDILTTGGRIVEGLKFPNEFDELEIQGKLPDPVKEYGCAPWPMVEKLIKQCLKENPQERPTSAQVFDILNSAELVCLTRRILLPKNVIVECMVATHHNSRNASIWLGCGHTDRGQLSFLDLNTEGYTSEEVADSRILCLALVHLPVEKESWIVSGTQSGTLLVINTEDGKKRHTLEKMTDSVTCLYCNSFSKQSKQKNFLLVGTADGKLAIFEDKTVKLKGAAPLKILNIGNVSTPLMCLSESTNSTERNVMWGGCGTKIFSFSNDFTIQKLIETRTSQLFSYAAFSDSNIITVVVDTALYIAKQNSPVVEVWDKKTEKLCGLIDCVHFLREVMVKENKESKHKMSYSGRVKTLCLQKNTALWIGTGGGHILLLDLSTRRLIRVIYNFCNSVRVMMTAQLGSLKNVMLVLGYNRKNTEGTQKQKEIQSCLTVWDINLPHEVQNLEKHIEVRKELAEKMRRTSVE
row,Compound,LRRK2 pIC50
1,"CC(C)n1nc(C2C[C@@H]2C#N)c2c1Nc1ncc(C(F)(F)F)c(n1)N[C@@H]1COC[C@H]1CO2 (single isomer, unassigned) [Ex-2.45, (1S,2S)- or (1R,2R)-2-((10aS,13aS)-3-isopropyl-8-(trifluoromethyl)-3,4,10a,11,13a,14-hexahydro-10H,13H-5,9-(azeno)furo[3,4-k]pyrazolo[4,3-b][1]oxa[4,6,10]triazacyclotridecin-1-yl)cyclopropane-1-carbonitrile]",8.32
2,"CC(C)n1nc(CO)c2c1Nc1ncc(C(F)(F)F)c(n1)N[C@@H]1CC[C@H]1CO2 [Ex-6.5, ((10aR,12aR)-3-isopropyl-8-(trifluoromethyl)-3,4,10,10a,11,12,12a,13-octahydro-5,9-(azeno)cyclobuta[k]pyrazolo[4,3-b][1]oxa[4,6,10]triazacyclotridecin-1-yl)methanol]",>10.09
3,"Cc1nn(C2CCC2)c2c1OC[C@@H]1COC[C@H]1Nc1nc(ncc1C(F)(F)F)N2 [Ex-2.28, (3aR,15aR)- or (3aS,15aS)-11-cyclobutyl-13-methyl-6-(trifluoromethyl)-2,3,3a,4,10,11,15,15a-octahydro-5,9-(azeno)furo[3,2-k]pyrazolo[4,3-b][1]oxa[4,6,10]triazacyclotridecine]",9.64
4,"Cc1nn(C)c2c1Nc1ncc(C(F)(F)F)c(n1)NCC1(CC1)CO2 [Ex-1.23, 1′,3′-dimethyl-8′-(trifluoromethyl)-1′,4′,10′,11′-tetrahydro-13′H-spiro[cyclopropane-1,12′-[5,9](azeno)pyrazolo[3,4-b][1]oxa[4,6,10]triazacyclotridecine]]",9.47
5,"Cc1nn(C2CCC2)c2c1OC[C@@H]1CN(CCO1)c1nc(ncc1C(F)(F)F)N2 (single isomer, unassigned) [Ex-21.2, (6R)- or (6S)-1-cyclobutyl-3-methyl-12-(trifluoromethyl)-1,5,6,8,9,16-hexahydro-11,15-(azeno)-6,10-methanopyrazolo[4,3-e][1,4]dioxa[7,9,13]triazacyclopentadecine]",8.07
6,"Cc1nn(C(C)C)c2c1OCCC(C)Nc1nc(ncc1C(F)(F)F)N2 (single isomer, unassigned) [Ex-2.8, (R)- or (S)-1-isopropyl-3,7-dimethyl-10-(trifluoromethyl)-1,5,6,7,8,14-hexahydro-9,13-(azeno)pyrazolo[4,3-b][1]oxa[4,6,10]triazacyclotridecine]",9.48
7,"O[C@H]1CC[C@@H]1n1nc(C2CC2)c2c1OC[C@@H]1COC[C@H]1Nc1nc(ncc1C(F)(F)F)N2 (single isomer, unassigned) [Ex-6.8, (1R,2R)- or (1S,2S)-2-((10aS,13aS)-3-cyclopropyl-8-(trifluoromethyl)-10a,11,13a,14-tetrahydro-10H,13H-5,9-(azeno)furo[3,4-k]pyrazolo[3,4-b][1]oxa[4,6,10]triazacyclotridecin-1(4H)-yl)cyclobutan-1-ol]",>10.09
8,"Cc1nn(C2CCC2)c2c1OC[C@@H]1CC[C@H]1Nc1nc(ncc1C(F)(F)F)N2 [Ex-2.3, (10aR,12aR)- or (10aS,12aS)-3-Cyclobutyl-1-methyl-8-(trifluoromethyl)-3,4,10,10a,11,12,12a,13-octahydro-5,9-(azeno)cyclobuta[k]pyrazolo[4,3-b][1]oxa[4,6,10]triazacyclotridecine]",9.12
9,"Cc1ccc2c(n1)OC[C@@H]1COC[C@H]1Nc1nc(ncc1C(F)(F)F)N2 [Ex-15.7, (11aS,14aS)-2-methyl-9-(trifluoromethyl)-11a,12,14a,15-tetrahydro-5H,11H,14H6,10-(azeno)furo[3,4-k]pyrido[2,3-b][1]oxa[4,6,10]triazacyclotridecine]",10.01
10,"FC(F)(F)c1cnc2nc1N[C@@H]1COC[C@H]1COc1cc(Cl)ncc1N2 [Ex-15.8, (3aS,16aS)-13-chloro-6-(trifluoromethyl)-3a,4,16,16a-tetrahydro-1H,3H,10H-5,9-(azeno)furo[3,4-k]pyrido[4,3-b][1]oxa[4,6,10]triazacyclotridecine]",9.04
11,"(R)- or (S)-1-cyclopropyl-3,7-dimethyl-10- (trifluoromethyl)-1,5,6,7,8,14-hexahydro- 9,13-(azeno)pyrazolo[4,3- b][1]oxa[4,6,10]triazacyclotridecine [Ex-2.20]",6.71
12,"Cc1nn(C2CCC2)c2c1OCCC(C)Nc1nc(ncc1C(F)(F)F)N2 (single isomer, unassigned) [Ex-2.7, (R)- or (S)-1-cyclobutyl-3,7-dimethyl-10-(trifluoromethyl)-1,5,6,7,8,14-hexahydro-9,13-(azeno)pyrazolo[4,3-b][1]oxa[4,6,10]triazacyclotridecine]",7.21
13,"CC(C)c1nn(C(C)(C)CO)c2c1Nc1ncc(C(F)(F)F)c(n1)N[C@H](C)CCO2 [Ex-7.4, (R)-2-(3-isopropyl-11-methyl-8-(trifluoromethyl)-10,11,12,13-tetrahydro-5,9-(azeno)pyrazolo[3,4-b][1]oxa[4,6,10]triazacyclotridecin-1(4H)-yl)-2-methylpropan-1-ol]",>10.09
14,"CCn1nc(C(F)(F)F)c2c1OC[C@@H]1COC[C@H]1Nc1nc(ncc1Cl)N2 [Ex-1.20, (10aS,13aS)-8-chloro-1-ethyl-3-(trifluoromethyl)-1,4,10a,11,13a,14-hexahydro-10H,13H-5,9-(azeno)furo[3,4-k]pyrazolo[3,4-b][1]oxa[4,6,10]triazacyclotridecine]",9.42
15,"Cn1nc(C(F)(F)F)c2c1OC[C@@H]1CC[C@H]1Nc1nc(ncc1Cl)N2 [Ex-1.19, (10aR,12aR)-8-chloro-1-methyl-3-(trifluoromethyl)-1,4,10,10a,11,12,12a,13-octahydro-5,9-(azeno)cyclobuta[k]pyrazolo[3,4-b][1]oxa[4,6,10]triazacyclotridecine]",9.87
16,"Cc1nn(C)c2c1OCC1(CC1)C(C)Nc1nc(ncc1C(F)(F)F)N2 (single isomer, unassigned) [Ex-2.14, (R)- or (S)-1′,3′,7′-trimethyl-10′-(trifluoromethyl)-1′,7′,8',14′-tetrahydro-5′H-spiro[cyclopropane-1,6′-[9,13](azeno)pyrazolo[4,3-b][1]oxa[4,6,10]triazacyclotridecine]]",6.73
17,"CCOC(=O)[C@@H]1C[C@@H]1c1nn(C(C)C)c2c1OC[C@@H]1COC[C@H]1Nc1nc(ncc1C(F)(F)F)N2 [Ex-2.46, ethyl (1R,2S)- or ethyl (1S,2R)-2-((10aS,13aS)-3-isopropyl-8-(trifluoromethyl)-3,4,10a,11,13a,14-hexahydro-10H,13H-5,9-(azeno)furo[3,4-k]pyrazolo[4,3-b][1]oxa[4,6,10]triazacyclotridecin-1-yl)cyclopropane-1-carboxylate]",6.66
18,"Cc1nn(C2CCC2)c2c1OC1COC[C@H]1CNc1nc(ncc1C(F)(F)F)N2 (stereo partly drawn) [Ex-2.80, (11aR,14aR)-3-cyclobutyl-1-methyl-8-(trifluoromethyl)-3,4,10,11,11a,12,14,14a-octahydro-5,9-(azeno)furo[3,4-1]pyrazolo [4,3-b][1]oxa[4,6,10]triazacyclotridecine (11aS,14aS)-3-cyclobutyl-1-methyl-8-(trifluoromethyl)-3,4,10,11,11a,12,14,14a-octahydro-5,9-(azeno)furo[3,4-1]pyrazolo[4,3-b][1]oxa[4,6,10]triazacyclotridecine]",7.57
19,"Cc1nn(C2CCC2)c2c1OC[C@H]1COC[C@@H]1Nc1cc(ncc1C(F)(F)F)N2 [Ex-13.2, (10aR,13aR)-3-cyclobutyl-1-methyl-8-(trifluoromethyl)-3,4,10a,11,13a,14-hexahydro-10H,13H-5,9-(metheno)furo[3,4-k]pyrazolo[4,3-b][1]oxa[4,6,10]triazacyclotridecine]",7.01
20,"Cc1nn(C)c2c1OCC1CC[C@H]1Nc1nc(ncc1C(F)(F)F)N2 (stereo partly drawn) [Ex-2.10, (10aR,12aR)- or (10aS,12aS)-1,3-dimethyl-8-(trifluoromethyl)-3,4,10,10a,11,12,12a,13-octahydro-5,9-(azeno)cyclobuta[k]pyrazolo[4,3-b][1]oxa[4,6,10]triazacyclotridecine]",>10.09
21,"CC(C)(O)Cn1nc(C2CC2)c2c1OC[C@@H]1CC[C@H]1Nc1nc(ncc1C(F)(F)F)N2 [Ex-1.21, 1-((10aR,12aR)-3-cyclopropyl-8-(trifluoromethyl)-10,10a,11,12,12a,13-hexahydro-5,9-(azeno)cyclobuta[k]pyrazolo[3,4-b][1]oxa[4,6,10]triazacyclotridecin-1(4H)-yl)-2-methylpropan-2-ol]",>10.09
22,"Cc1nn(C2CCC2)c2c1OC1COC[C@@H]1CNc1nc(ncc1Cl)N2 (stereo partly drawn) [Ex-2.84, (11aR,14aR)- or (11aS,14aS) 8-chloro-3-cyclobutyl-1-methyl-3,4,10,11,11a,12,14,14a-octahydro-5,9-(azeno)furo[3,4-1]pyrazolo[4,3-b][1]oxa[4,6,10]triazacyclotridecine]",8.77
23,"Cc1nn(C(C)C)c2c1OC[C@@H]1COC[C@H]1Nc1nc(ncc1Cl)N2 [Ex-2.54, (10aS,13aS)-8-chloro-3-isopropyl-1-methyl-3,4,10a, 11,13a,14--hexahydro-10H,13H-5,9-(azeno)furo[3,4-k]pyrazolo[4,3-b][1]oxa[4,6,10]triazacyclotridecine]",8.57

# Same assay, conditions: G2019S LRRK2, 134 μM ATP (Km ATP), LRRKtide substrate; read-out: LRRK2 pIC50 (converted)
row,Compound,IC50
1,"COC1CC(n2nc(C)c3c2Nc2ncc(C(F)(F)F)c(n2)NC2COCC2CO3)C1 (single isomer, unassigned) [Ex-2.31, (10aS,13aS)- or (10aR,13aR)-3-((1R,3S)-3-methoxycyclobutyl)-1-methyl-8-(trifluoromethyl)-3,4,10a,11,13a,14-hexahydro-10H,13H-5,9-(azeno)furo[3,4-k]pyrazolo[4,3-b][1]oxa[4,6,10]triazacyclotridecine]",288 nM
